Consider ten compounds from ChEMBL document CHEMBL3046347, “Synthesis and biological evaluation of novel curcumin analogues as anti-inflammatory, anti-cancer and anti-oxidant agents” (Med Chem Res, 2012).

Usually inhibition stands for the relative decrease from the control value, in per cent.

The target in series [1] is T1, Prostaglandin G/H synthase 2 (Ovis aries) (UniProt P79208).
T1 sequence (whole entry): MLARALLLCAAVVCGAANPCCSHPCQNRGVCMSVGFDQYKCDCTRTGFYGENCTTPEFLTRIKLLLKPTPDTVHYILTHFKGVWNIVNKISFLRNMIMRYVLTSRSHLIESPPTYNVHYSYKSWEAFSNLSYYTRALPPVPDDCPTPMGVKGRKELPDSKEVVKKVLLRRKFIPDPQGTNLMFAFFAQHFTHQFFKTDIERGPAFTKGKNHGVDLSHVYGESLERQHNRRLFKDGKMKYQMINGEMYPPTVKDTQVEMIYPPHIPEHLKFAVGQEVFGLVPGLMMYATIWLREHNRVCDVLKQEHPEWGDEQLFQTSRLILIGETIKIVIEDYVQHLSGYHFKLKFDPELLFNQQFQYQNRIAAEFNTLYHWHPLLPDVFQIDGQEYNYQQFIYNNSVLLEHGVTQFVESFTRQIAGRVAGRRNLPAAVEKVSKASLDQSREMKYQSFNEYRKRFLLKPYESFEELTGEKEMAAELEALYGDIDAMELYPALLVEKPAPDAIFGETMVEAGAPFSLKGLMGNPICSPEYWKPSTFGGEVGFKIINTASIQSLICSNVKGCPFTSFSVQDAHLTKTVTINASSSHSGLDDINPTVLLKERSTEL
In words: Inhibition of Ovis aries (sheep) COX2 at 1 uM after 5 min by colorimetric analysis.

The subject of series [2] is PANC-1. In words: Cytotoxicity against Homo sapiens (human) PANC1 cells at 10 uM after 48 hr by propidium iodide-based fluorometric assay. The series is classed as functional. To be noted: PANC-1, 48 h, read-out: GI.
The subject of series [3] is ACHN. In words: Cytotoxicity against Homo sapiens (human) ACHN cells at 10 uM after 48 hr by propidium iodide-based fluorometric assay. The format is functional. To be noted: read-out: GI.
A short description of series [4]: Antioxidant activity assessed as reduction of potassium ferricynide at 1 uM after 10 min by spectrophotometric analysis. The format is functional. Also noted: scale not given: the % may be the effect or the level left.
For series [5], the system named is THP-1. In words: Anti-inflammatory activity in Homo sapiens (human) THP1 cells assessed as inhibition of LPS-induced IL6 production at 10 uM incubated for 30 min prior to LPS-challenge measured after 24 hr by ELISA. The series is classed as functional.
The test system of series [6] is Calu-1. In words: Cytotoxicity against Homo sapiens (human) Calu1 cells at 10 uM after 48 hr by propidium iodide-based fluorometric assay. The series is classed as functional. To be noted: Calu-1, 48 h, read-out: GI.
The subject of series [7] is THP-1. In words: Anti-inflammatory activity in Homo sapiens (human) THP1 cells assessed as inhibition of LPS-induced TNFalpha production at 10 uM incubated for 30 min prior to LPS-challenge measured after 24 hr by ELISA. The format is functional. (An ELISA detects its analyte on a solid surface through an enzyme-linked reagent.)
In series [8] the test system is HCT-116. In words: Cytotoxicity against Homo sapiens (human) HCT116 cells at 10 uM after 48 hr by propidium iodide-based fluorometric assay. The series is classed as functional. To be noted: HCT-116, 48 h, read-out: GI.
Series [9] in a line: Cytotoxicity against Homo sapiens (human) H460 cells at 10 uM after 48 hr by propidium iodide-based fluorometric assay. To be noted: NCI-H460, 48 h, read-out: GI. The series is classed as functional.
For series [10], the target named is Trypsin (Homo sapiens) (UniProt P07477+P07478+P35030). In words: Inhibition of trypsin (unknown origin) using bovine serum albumin as substrate at 1 uM incubated for 20 min prior to substrate addition measured after 25 min by Lowry method. The series is classed as protein assay.
In series [11] the target is T2, Beta-glucuronidase (Homo sapiens) (UniProt P08236).
T2 sequence (whole entry): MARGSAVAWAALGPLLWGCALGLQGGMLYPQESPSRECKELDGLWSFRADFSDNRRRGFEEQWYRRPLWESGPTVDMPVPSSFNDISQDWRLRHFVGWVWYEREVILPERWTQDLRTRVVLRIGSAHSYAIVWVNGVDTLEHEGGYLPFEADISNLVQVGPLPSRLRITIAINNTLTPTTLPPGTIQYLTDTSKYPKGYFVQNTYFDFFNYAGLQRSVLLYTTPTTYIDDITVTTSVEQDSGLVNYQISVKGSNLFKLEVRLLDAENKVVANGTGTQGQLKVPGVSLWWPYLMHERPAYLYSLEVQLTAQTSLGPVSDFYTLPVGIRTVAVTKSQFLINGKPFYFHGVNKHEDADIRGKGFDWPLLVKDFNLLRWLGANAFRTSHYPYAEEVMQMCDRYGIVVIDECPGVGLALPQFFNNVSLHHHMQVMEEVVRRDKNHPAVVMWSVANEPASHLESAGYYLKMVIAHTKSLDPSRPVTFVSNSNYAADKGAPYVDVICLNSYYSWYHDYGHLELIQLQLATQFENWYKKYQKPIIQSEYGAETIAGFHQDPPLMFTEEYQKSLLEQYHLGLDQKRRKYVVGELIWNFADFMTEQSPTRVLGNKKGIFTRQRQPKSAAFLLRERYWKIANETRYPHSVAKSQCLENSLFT
In words: Inhibition of beta-glucuronidase (unknown origin) using p-nitrophenyl-beta-D-glucopyranosiduronic acid as substrate at 1 uM after 30 min by spectrophotometric analysis.

For series [12], the system named is Radical scavenging activity. As to the kind of experiment: Antioxidant activity assessed as DPPH radical scavenging activity at 1 uM after 20 min by spectrophotometric analysis. The format is functional.
The target in series [13] is T3, Prostaglandin G/H synthase 1 (Ovis aries) (UniProt P05979).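 Note: colorimetric read-out, measured after 5 min.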
T3 sequence (whole entry): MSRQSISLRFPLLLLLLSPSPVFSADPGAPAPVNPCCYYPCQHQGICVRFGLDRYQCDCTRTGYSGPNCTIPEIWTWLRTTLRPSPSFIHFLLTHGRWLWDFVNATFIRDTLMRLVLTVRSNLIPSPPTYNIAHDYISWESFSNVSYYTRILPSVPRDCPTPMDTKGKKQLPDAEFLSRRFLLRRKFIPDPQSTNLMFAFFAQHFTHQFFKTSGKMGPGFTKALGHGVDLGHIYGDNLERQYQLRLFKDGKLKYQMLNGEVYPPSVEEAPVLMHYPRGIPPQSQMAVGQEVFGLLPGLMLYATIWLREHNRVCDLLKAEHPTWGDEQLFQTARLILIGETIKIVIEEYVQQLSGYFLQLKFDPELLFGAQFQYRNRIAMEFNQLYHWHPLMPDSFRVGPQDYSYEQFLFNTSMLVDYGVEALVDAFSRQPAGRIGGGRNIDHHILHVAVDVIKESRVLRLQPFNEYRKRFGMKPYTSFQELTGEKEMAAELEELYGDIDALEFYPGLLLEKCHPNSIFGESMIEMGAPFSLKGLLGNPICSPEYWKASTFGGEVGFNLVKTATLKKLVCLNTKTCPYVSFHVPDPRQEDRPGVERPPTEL
To be noted: at 1 µM.
Description: Inhibition of Ovis aries (sheep) COX1 at 1 uM after 5 min by colorimetric analysis

The nature of series [14]: Antioxidant activity assessed as hydroxyl radical scavenging activity at 1 uM by spectrophotometric analysis. The series is classed as functional.
Series [15] can be described thus: Cytotoxicity against Homo sapiens (human) […] cells at 10 uM. The format is cell-based.

As for `COc1cc(OC)c(/C=C/C(=O)c2cccc(NC(=O)c3ccc(F)cc3)c2)c(OC)c1Br`, the inhibition in series [1] worked out at 83.3%; in series [10], 72.9%; in [11], 79.4%; in series [13] it was 58.9%. For the same compound, the inhibition of growth at 10 µM in [2] amounted to 66%; in series [3], 69%; in series [6], 60%; in series [8], 64%; in series [9] it was 62%. For the same compound, the Activity in [4] was found to be 43.9%; in series [12], 44.3%; in [14] it was 33.4%; in series [15] it was 49%. For the same compound, the inhibition at 10 µM in series [5] was 97%; in series [7], 85%.
In the case of `COc1cc(OC)c(/C=C/C(=O)c2cccc(NC(=O)c3ccccc3)c2)c(OC)c1Br`, the inhibition turned out to be 65.7% in [1], 58.1% in [10], 49.6% in series [11] and 51.9% in series [13]. The inhibition of growth at 10 µM worked out at 10% in series [2]; 21% in series [3]; 6% in [6]; 0% in series [8]; 14% in [9]. For the same compound, the Activity in [4] was 46.6%; in series [12], 49.4%; in [14], 54.1%; in series [15] it was 65%. Besides, the inhibition at 10 µM in series [5] was 98%; in series [7] it was 91%.
Regarding `COc1cc(OC)c(/C=C/C(=O)c2cccc(NC(=O)c3cccc(C(F)(F)F)c3)c2)c(OC)c1Br`, the inhibition in series [1] came to 89.2%; in series [10], 65.5%; in [11] it was 81.4%; in series [13], 48.9%. In addition, the inhibition of growth at 10 µM in [2] amounted to 0%; in series [3], 15%; in [6], 0%; in series [8] it was 6%; in series [9], 4%. The Activity in series [4] was 40.7%; in series [12], 45.7%; in [15] it was 65%. The results for the inhibition at 10 µM in series [5] and in series [7] were 97% and 85%, respectively.
As to `COc1cc(OC)c(/C=C/C(=O)c2cccc(NC(=O)c3cccc(F)c3)c2)c(OC)c1Br`, the inhibition in [1] worked out at 82.5%; in series [10] it was 63.5%; in series [11], 72.9%; in [13], 59.8%. Besides, the inhibition of growth at 10 µM amounted to 32% in series [2]; 33% in series [3]; 31% in series [6]; 26% in [8]; 33% in series [9]. Moreover, the Activity in series [4] amounted to 39.9%; in [12], 43.3%; in series [14], 32.2%; in series [15], 51%. Further, the inhibition at 10 µM in [5] came out at 93%; in series [7], 78%.
For `COc1ccc(C(=O)Nc2cccc(C(=O)/C=C/c3c(OC)cc(OC)c(Br)c3OC)c2)cc1`, the inhibition in series [1] worked out at 38%; in [10] it was 39.6%; in [11], 34%; in series [13], 19.6%. Moreover, the inhibition of growth at 10 µM in [2] turned out to be 99%; in series [3], 97%; in [6], 99%; in series [8] it was 98%; in [9], 98%. Besides, the Activity in series [4] was found to be 26.9%; in [12], 36.3%; in [14], 21.2%; in [15], 65%. Besides, the figures for the inhibition at 10 µM in [5] and in series [7] were 94% and 63%, respectively.
Regarding `COc1cc(OC)c(/C=C/C(=O)c2cccc(NC(=O)c3cccc(Br)c3)c2)c(OC)c1Br`, the inhibition in [1] is 88.4%; in [10], 66.5%; in series [11], 84.7%; in series [13], 41.7%. The inhibition of growth at 10 µM in [2] was determined as 0%; in series [3], 6%; in series [6] it was 0%; in [8] it was 0%; in [9] it was 6%. Besides, the Activity in [4] came out at 39.7%; in series [12], 42.6%; in series [14], 23.6%; in series [15], 31%. In addition, the inhibition at 10 µM in series [5] stood at 75%; in series [7], 4%.
Turning to `O=C(O)c1cc(O)c(O)c(O)c1`, the Activity in [12] was determined as 92.4%.
`CC(=O)Oc1ccccc1C(=O)O` returned an inhibition in series [1] of 36.9%.
`O=C(O)c1ccccc1O`: the inhibition in series [10] came to 85%; in series [11], 24.8%.
For the compound `COc1cc(OC)c(/C=C/C(=O)c2cccc(NC(=O)c3cccc(Cl)c3)c2)c(OC)c1Br`, the inhibition was determined as 86.5% in series [1], 78.1% in series [10], 78.2% in series [11] and 53.9% in series [13]. Further, the inhibition of growth at 10 µM stood at 35% in series [2]; 26% in series [3]; 26% in series [6]; 28% in [8]; 17% in series [9]. For the same compound, the Activity turned out to be 38.4% in series [4], 45.3% in series [12] and 25% in series [15]. The inhibition at 10 µM in [5] is 64%; in [7], 0%.
